Measurements reported in US20110171225A1, “Novel Plasmodium Falciparum Gene Encoding Signal Peptide Peptidase and Method of Using Inhibitors Thereof for Inhibiting Malarial Infection” (The Board of Trustees of the University of Illinois, priority 2008, published 2011).
“Also recorded” adds a separate entry of the source. Where two headings read alike, the source gives them in different places. No end group written: not given here.

T1: SPP (Homo sapiens, UniProt Q8TCT9)
T1 sequence (Q8TCT9 1-377): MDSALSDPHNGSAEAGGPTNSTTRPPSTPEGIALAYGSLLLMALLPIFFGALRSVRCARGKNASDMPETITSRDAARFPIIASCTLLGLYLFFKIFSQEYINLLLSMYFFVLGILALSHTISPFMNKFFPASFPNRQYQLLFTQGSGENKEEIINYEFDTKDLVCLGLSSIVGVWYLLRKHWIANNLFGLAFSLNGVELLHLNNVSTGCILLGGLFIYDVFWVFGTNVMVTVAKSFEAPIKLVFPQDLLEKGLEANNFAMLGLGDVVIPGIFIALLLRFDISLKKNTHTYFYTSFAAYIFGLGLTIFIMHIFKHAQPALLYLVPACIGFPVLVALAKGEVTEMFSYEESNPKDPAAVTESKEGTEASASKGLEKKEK

T2: GST-5ABC (GST fused to residues 720-761 of human erythrocyte band 3) (human, UniProt P02730 720-761)
T2 construct: also called soluble GST-5ABC; GST-5ABC conjugated to beads
T2 chain: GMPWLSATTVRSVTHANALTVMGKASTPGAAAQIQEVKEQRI

B1: native Plasmodium falciparum signal peptide peptidase (PfSPP) (enzyme)
chain: MNLLKLIGKNKKMKNENMGNSIFYYSCYVIIVLTIILSKFVVIPLMAQMFLYTFITIYIGSHDSLKQLEIDDKTKKSDNITAYDAMMFPVIGSAALLTLYFAYKFLDPFYVNLLLTLYLTLAGVFSLQGVFTTILEPVFPNFFKKDEYVKTFKLPNFIYKEPIVFNTNKGEIVCLILSFAIGLRWIFYKDFITHNVLAVSFCFQAISLVILSNFLIGFLLLSGLFVYDIFWVFGNDVMVTVAKSFEAPVKLLFPVSSDPVHYSMLGLGDIIIPGILMSLCLRFDYYLFKNNIHKGNLKKMFNDISIHESFKKYYFYTIIIFYELGLVVTYCMLFYFEHPQPALLYLVPACILAILACSICKREFKLMIKYQEITDKSNTVDDASKNKKKDKEEIPKIQETPVSNAKKRITNK
notes: also called native PfSPP; native P. falciparum PfSPP

What was measured:
[1] = system: P. falciparum merozoite invasion of human erythrocytes; assay: RBC invasion by synchronized schizonts with SPP inhibitors, new rings counted; format: cell-based; conditions: increasing concentrations, 20 h, versus DMSO
Excerpt: To investigate the role of PfSPP in parasite invasion, a chemical approach was adopted by employing three synthetic inhibitors of mammalian membrane aspartyl proteases. The inhibitor (Z-LL)2-ketone (Calbiochem/EMD Biosciences, Gibbstown, N.J.) is specific for mammalian SPP, whereas the L-685,458 and DAPT inhibitors (both were gift of Dr. S. Sisodia of the University of Chicago) are known to be specific for the γ-secretase/Presenilin-1 complex (FIG. 8A). […] Herein, human erythrocytes with highly synchronized P. falciparum schizonts were incubated in the presence of increasing concentrations of (Z-LL)2-ketone, L-685,458, and DAPT. After 20 h of incubation, the rings were counted from the inhibitor and DMSO treated samples.

P. falciparum 3D7 = assay: Parasite growth in human erythrocytes from synchronized ring stage; format: cell-based; conditions: for inhibition of parasite replication (in words): 10 μM, after one cycle of asexual multiplication; for effect on parasite growth in erythrocytes (in words): ring stage parasites, 0.2% DMSO
Excerpt: FIG. 9B depicts a graph indicating inhibition of parasite growth as a result of (Z-LL)2-ketone (▪), L-685,458 (•), and DAPT (♦) treatment. […] FIG. 9C is a schematic diagraph showing disruption of the P. falciparum (3D7 strain) PfSPP gene. PfSPP5′ and PfSPP3′ represent 5′ translated region (616 bp) and 3′ translated region (711 bp) of the PfSPP gene, respectively. Dashed lines represent bacterial vector sequences. Bold lines represent untranslated regions of the target PfSPP gene.
The P. falciparum strain 3D7 (obtained from MR4) was maintained in continuous culture in a 5% suspension of fresh type O+ human erythrocytes in RPMI 1640 at 37° C. under 5% CO2, 5% O2, and 90% N2 by the method of Trager and Jensen (Trager et al., 1976, Science 193:673-5). Ring-stage parasites were synchronized by using 5% sorbitol treatment and late-stage parasites were enriched to >95% by centrifugation in 63% (v/v) Percoll as described (Goel et al., 2003, Proc Natl Acad Sci USA 100:5164-5169). The parasite protein extract was prepared by solubilizing an enriched fraction of mature parasites with an extraction buffer (50 mM Tris-HCl, pH 8.0, 150 mM NaCl, 5 mM EDTA, 5 mM EGTA, 0.5% Triton X-100, 0.5% BSA) supplemented with 2 μg/ml Aprotinin, 1 μg/ml of Leupeptin, Pepstatin A, Bestatin, 10 mM PMSF, and a cocktail of protease inhibitors (Roche, Indianapolis, Ind.). The mixture was kept on ice for 1 h and centrifuged at 12,000 g for 20 min at 4° C. The supernatant was stored at −80° C. in aliquots and used in the antibody characterization and binding assays.
The effects of the three inhibitors on malaria parasite growth in human erythrocytes were examined Synchronized ring stage parasites were incubated with inhibitors in the presence of 0.2% DMSO. […] The precipitous decline in parasitemia presumably originated from inhibition of late rings or early trophozoites, as pyknotic parasites were observed after 24-48 h of culture in the presence of (Z-LL)2-ketone and L-685,458 (FIG. 4). Destruction of the inhibitor-treated parasites was irreversible, as no progression to the second asexual cycle was observed. In contrast, DAPT had little or no effect on parasite growth as compared to the DMSO-treated control (FIG. 9A).

P. falciparum 7G8 = assay: Parasite growth by [3H]-hypoxanthine incorporation; format: cell-based; conditions: 7G8 strain, chloroquine-resistant
Description: (§1) Since the primary structure of PfSPP is highly conserved, the effect of these inhibitors on the growth of other P. falciparum strains was also tested. The parasite strains tested included two chloroquine-resistant P. falciparum strains (7G8, Dd2), one chloroquine-sensitive strain (HB3), and one mildly chloroquine-resistant strain (FCR3). Parasite growth was evaluated in these four strains by measuring [^3H]-hypoxanthine incorporation starting at 24 h post-invasion. Both (Z-LL)2-ketone and L-685,458 inhibited parasite growth in all 4 parasite strains with the IC50 values similar to 3D7 strain, while DAPT had no effect on any strain (Table 2).

P. falciparum Dd2 = assay: Parasite growth by [3H]-hypoxanthine incorporation; format: cell-based; conditions: Dd2 strain, chloroquine-resistant
Description: as §1

P. falciparum FCR3 = assay: Parasite growth by [3H]-hypoxanthine incorporation; format: cell-based; conditions: FCR3 strain, mildly chloroquine-resistant
Description: as §1

P. falciparum HB3 = assay: Parasite growth by [3H]-hypoxanthine incorporation; format: cell-based; conditions: HB3 strain, chloroquine-sensitive
Description: as §1

[2] = molecular target: T3, γ-secretase/Presenilin-1 complex (Homo sapiens, UniProt P49768); conditions: (Z-LL)2-ketone up to 100 μM; cited from earlier work
T3 construct: host or cells: live mammalian cells

[3] = system: incomplete version of PfSPP lacking the 6 amino acids; conditions: cited from earlier work
SPP = molecular target: T1, SPP; conditions: DAPT at 100 μM; cited from earlier work
PfSPP = assay: RBC-binding assay in suspension with native PfSPP from culture supernatant; parameters: species or system P. falciparum; conditions: soluble protein 40 μM, quantified by densitometry of immunoblot
Description: To carry out a RBC-binding assay in solution using native PfSPP, a spent culture supernatant of P. falciparum containing native PfSPP was prepared as follows. Trophozoites enriched from a 5% sorbitol-synchronized P. falciparum culture were allowed to mature for 16 h to form schizonts and merozoites. The parasites were left in the culture flask to lyse and the proteins were released into the culture supernatant. Aliquots of the culture were centrifuged at either 12,000 g for 20 min or 40,000 g for 15 min at 4° C. The culture supernatant and pellet were analyzed by immunoblot analysis using anti-PfSPP pAbs. The culture supernatant prepared at 12,000 g was stored at −80° C. in aliquots and used in subsequent RBC binding assays. In these assays, a 500 μl sample of P. falciparum culture supernatant was added to untreated, trypsin-treated, chymotrypsin-treated, or neuraminidase-treated intact human RBCs (50 μl packed volume) for 1 h at room temperature. The cells were centrifuged at 12,000 g for 30 s through a layer of silicone oil (500 μl). Proteins bound to RBCs were eluted by incubating the RBCs in 1.5 M NaCl (20 μl) for 30 min at room temperature. Salt-eluted proteins were analyzed by SDS-PAGE followed by immunoblotting using anti-PfSPP Abs. The pretreatment of intact RBCs with enzymes was carried out as described (Goel et al., 2003, Proc Natl Acad Sci USA 100:5164-5169). […]

[4] = molecular target: T2, GST-5ABC (GST fused to residues 720-761 …); assay: bead pull-down (GST-5ABC on GSH beads), immunoblot with anti-PfSPP/ER pAbs
[5] = 3D7 strain, read-out: IC50 parasite growth
[6] = FIG. 9B legend, read-out: IC50 for live parasites

Row | Molecule | effect on parasite/merozoite invasion (in words) [1] | inhibition of parasite replication (in words) (P. falciparum 3D7) | IC50 (P. falciparum 3D7; [5]) | IC50 (P. falciparum 3D7; [6]) | effect on parasite growth in erythrocytes (in words) (P. falciparum 3D7) | IC50 (P. falciparum 7G8) | IC50 (P. falciparum Dd2) | IC50 (P. falciparum FCR3) | IC50 (P. falciparum HB3) | inhibition of γ-secretase/Presenilin-1 activity (in words) [2] | inhibition of in vitro enzyme activity (in words) [3] | effect on SPP activity (in words) (SPP) | decrease of binding of PfSPP to RBCs (PfSPP) | binding result [4]
1 | CC(C)C[C@H](NC(=O)OCc1ccccc1)C(=O)N[C@@H](CC(C)C)C(=O)NCC(=O)CNC(=O)[C@H](CC(C)C)NC(=O)[C@H](CC(C)C)NC(=O)OCc1ccccc1 [(Z-LL)2-ketone] | efficiently inhibited; also recorded: significant decrease in the number of new rings | complete inhibition | 985 nM | 985 nM | significant inhibition | 1120 ± 50 nM | 1080 ± 70 nM | 1230 ± 40 nM | 1060 ± 50 nM | does not inhibit | inhibited |  |  | 
2 | C[C@H](NC(=O)Cc1cc(F)cc(F)c1)C(=O)N[C@H](C(=O)OC(C)(C)C)c1ccccc1 [DAPT] | minimal effect; also recorded: no effect |  |  |  | no effect | > 10000 nM | > 10000 nM | > 10000 nM | > 10000 nM |  |  | no effect |  | 
3 | CC(C)C[C@H](NC(=O)[C@H](Cc1ccccc1)C[C@@H](O)[C@H](Cc1ccccc1)NC(=O)OC(C)(C)C)C(=O)N[C@@H](Cc1ccccc1)C(N)=O [L-685,458] | efficiently inhibited; also recorded: significant decrease in the number of new rings | complete inhibition | 174 nM | 174 nM | significant inhibition | 210 ± 40 nM | 180 ± 30 nM | 230 ± 30 nM | 190 ± 20 nM | inhibited |  | inhibited |  | 
4 | C[C@H](NC(=O)[C@@H](O)c1cc(F)cc(F)c1)C(=O)N[C@@H]1C(=O)N(C)c2ccccc2-c2ccccc21 [LY411,575] |  |  |  |  |  |  |  |  |  |  | inhibited |  |  | 
5 | GST-5ABC: GST fusion protein of 5ABC peptide, residues 720-761 of human band 3 (SEQ ID NO:7) (GMPWLSATTVRSVTHANALTVMGKASTPGAAAQIQEVKEQRI; also: GST fusion; UniProt P02730 720-761, looked up, fragment) |  |  |  |  |  |  |  |  |  |  |  |  | 94% | 
6 | B1 |  |  |  |  |  |  |  |  |  |  |  |  |  | binds
